From ChEMBL document CHEMBL1201862, “PubChem BioAssay data set” (2004)
Values joined by “and” are separate entries in the source; they are usually repeats but may differ in a detail not shown here. Equal values may be shown once.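 Method: 48-hour compound exposure of cells in 96-well plates, five concentrations, linear interpolation of endpoints. GI50 is the concentration that inhibits growth by half.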 Active and inactive are the calls of the source. No stated cut-off is given here; in the data, active = GI50 up to about 1.1 µM and inactive = higher.

Assays:
Assay in all cases: growth of human tumour cells (NCI), 48 h
A498 = system: A498
MDA-N = system: MDA-N
NCI/ADR-RES = system: NCI/ADR-RES
U-251 = system: U-251
SF-268 = system: SF-268
OVCAR-5 = system: OVCAR-5
HOP-62 = system: HOP-62
OVCAR-3 = system: OVCAR-3
RXF 393 = system: RXF 393
SF-539 = system: SF-539
SK-MEL-28 = system: SK-MEL-28
DU-145 = system: DU-145
CCRF-CEM = system: CCRF-CEM
NCI-H226 = system: NCI-H226
TK-10 = system: TK-10
SR = system: SR
786-0 = system: 786-0
IGROV-1 = system: IGROV-1
HT-29 = system: HT-29
T47D = system: T47D

Structure (SMILES)	GI50 (A498)	GI50 (MDA-N)	GI50 (NCI/ADR-RES)	GI50 (U-251)	GI50 (SF-268)	GI50 (OVCAR-5)	GI50 (HOP-62)	GI50 (OVCAR-3)	GI50 (RXF 393)	GI50 (SF-539)	GI50 (SK-MEL-28)	GI50 (DU-145)	GI50 (CCRF-CEM)	GI50 (NCI-H226)	GI50 (TK-10)	GI50 (SR)	GI50 (786-0)	GI50 (IGROV-1)	GI50 (HT-29)	GI50 (T47D)
N=C(N)N/N=C/c1c(-c2cc([N+](=O)[O-])c(Cl)cc2Cl)nc2sccn12	1.62 µM (inactive) and 1.61 µM (inactive)	1.48 µM (inactive)	> 100 µM (inactive)	1.05 µM (active) and 272 nM (active)	1.83 µM (inactive)	1.87 µM (inactive)	1.89 µM (inactive)	1.86 µM (inactive)	1.46 µM (inactive)	1.53 µM (inactive) and 1.85 µM (inactive)	1.38 µM (inactive) and 1.47 µM (inactive)	2.15 µM (inactive) and 449 nM (active)	0.714 µM (active)	2.04 µM (inactive)	1.54 µM (inactive) and 1.57 µM (inactive)	0.0368 µM (active)	1.67 µM (inactive)	–	–	–
C[C@H](c1ccccc1)N1C(=O)[C@@H](OCc2ccccc2)[C@H]1[C@H](COC(=O)COCc1ccccc1)OCc1ccccc1	> 100 µM (inactive)	> 100 µM (inactive)	–	> 100 µM (inactive)	> 100 µM (inactive)	> 100 µM (inactive)	> 100 µM (inactive)	> 100 µM (inactive)	–	–	> 100 µM (inactive)	> 100 µM (inactive)	> 100 µM (inactive)	6.95 µM (inactive)	> 100 µM (inactive)	> 100 µM (inactive)	> 100 µM (inactive)	> 100 µM (inactive)	–	–
CSc1nc(SC)c2c(C#N)n[nH]c2n1	> 100 µM (inactive)	–	–	> 100 µM (inactive)	> 100 µM (inactive)	–	> 100 µM (inactive)	> 100 µM (inactive)	> 100 µM (inactive)	> 100 µM (inactive)	> 100 µM (inactive)	–	> 100 µM (inactive)	> 100 µM (inactive)	49.4 µM (inactive)	> 100 µM (inactive)	> 100 µM (inactive)	> 100 µM (inactive)	> 100 µM (inactive)	–
C=C(Cl)/C(=C\Cl)CCC(Cl)C(C)C (stereo not drawn)	> 100 µM (inactive)	> 100 µM (inactive)	> 100 µM (inactive)	> 100 µM (inactive)	> 100 µM (inactive)	> 100 µM (inactive)	> 100 µM (inactive)	> 100 µM (inactive)	> 100 µM (inactive)	> 100 µM (inactive)	> 100 µM (inactive)	> 100 µM (inactive)	41.2 µM (inactive)	> 100 µM (inactive)	> 100 µM (inactive)	56.5 µM (inactive)	> 100 µM (inactive)	> 100 µM (inactive)	> 100 µM (inactive)	–
CC1(OCc2ccccc2)C(=O)N2C1NCC2(C)C (stereo not drawn)	> 100 µM (inactive)	–	–	> 100 µM (inactive)	> 100 µM (inactive)	–	> 100 µM (inactive)	> 100 µM (inactive)	> 100 µM (inactive)	> 100 µM (inactive)	> 100 µM (inactive)	–	> 100 µM (inactive)	> 100 µM (inactive)	> 100 µM (inactive)	> 100 µM (inactive)	> 100 µM (inactive)	> 100 µM (inactive)	> 100 µM (inactive)	–
c1ccc2c(c1)nc1n2sc2nc3ccccc3n21	–	–	> 100 µM (inactive)	> 100 µM (inactive)	> 100 µM (inactive)	> 100 µM (inactive)	–	> 100 µM (inactive)	–	> 100 µM (inactive)	> 100 µM (inactive)	> 100 µM (inactive)	> 100 µM (inactive)	> 100 µM (inactive)	> 100 µM (inactive)	> 100 µM (inactive)	> 100 µM (inactive)	> 100 µM (inactive)	> 100 µM (inactive)	–
Cc1c(-c2cc(-c3ccccc3)n[nH]c2=O)c2ccccc2n1C	> 100 µM (inactive)	–	–	> 100 µM (inactive)	> 100 µM (inactive)	> 100 µM (inactive)	> 100 µM (inactive)	> 100 µM (inactive)	> 61.7 µM (inactive)	> 100 µM (inactive)	> 100 µM (inactive)	–	> 100 µM (inactive)	> 100 µM (inactive)	> 100 µM (inactive)	> 100 µM (inactive)	> 100 µM (inactive)	> 100 µM (inactive)	> 100 µM (inactive)	–
CCCCC(CCCC)=NNC(=S)SC	39.4 µM (inactive)	–	25.1 µM (inactive)	29.6 µM (inactive)	34.3 µM (inactive)	38.2 µM (inactive)	40.6 µM (inactive)	–	65.3 µM (inactive)	26.2 µM (inactive)	37.2 µM (inactive)	30.3 µM (inactive)	–	16.1 µM (inactive)	17 µM (inactive)	–	34.8 µM (inactive)	–	33.6 µM (inactive)	20 µM (inactive)
CCOC(=O)C1=C(C)Nc2ccccc2S1	> 100 µM (inactive)	–	–	> 100 µM (inactive)	> 100 µM (inactive)	> 100 µM (inactive)	> 100 µM (inactive)	> 100 µM (inactive)	51.9 µM (inactive)	> 100 µM (inactive)	> 100 µM (inactive)	–	> 100 µM (inactive)	> 100 µM (inactive)	> 100 µM (inactive)	> 100 µM (inactive)	> 100 µM (inactive)	> 100 µM (inactive)	> 100 µM (inactive)	–
